Test results published in publication PMC6982741, “Design, Synthesis and Study of Nitrogen Monoxide Donors as Potent Hypolipidaemic and Anti-Inflammatory Agents” (Molecules, 2019).
Like-named read-outs stand apart in the source and are kept apart here. Marks after values point to notes of the source that are not given here.

Assays:
[1] = system: rat hepatic microsomal membrane lipid peroxidation; experiment: Fe2+/ascorbate induced lipid peroxidation, TBA reactive material; type: biochemical; details: for IC50: after 45 min of incubation, read-out: Inhibition of Lipid Peroxidation IC50
Procedure: (§1) The antioxidant activity of compounds was estimated by the inhibition of rat hepatic microsomal membrane lipid peroxidation, induced by Fe^+2/ascorbate, estimated as 2-thiobarbituric acid (TBA) reactive material, and by their interaction with the N-centred 1,1-diphenyl-2-picrylhydrazyl (DPPH) stable free radical. […] The percent interaction with DPPH and the IC50 values of compounds 7–9 on rat hepatic microsomal membrane lipid peroxidation, after 45 min of incubation is shown in Table 4.
The peroxidation of heat-inactivated (90°, 90 s) rat liver microsomal fraction was induced by ascorbic acid (0.2 mM) and ferrous sulphate (10 μΜ). The studied compounds, in dimethylsulfoxide, were added at concentrations 1 μM–1 mM. Aliquots were taken from the incubation mixture (37 °C) for 45 min. Lipid peroxidation was assessed spectrophotometrically (535/600 nm) as 2-thiobarbituric acid reactive material. All compounds and solvents were found not to interfere with the assay.

[2] = Interaction with the stable radical DPPH; details: DPPH 200 μΜ, after 30 min
Procedure: as §1
Compounds (in absolute ethanol, final concentrations 25–200 μM) were added to an ethanolic solution of DPPH (final concentration 200 μM) at room temperature (22 ± 2 °C). Absorbance (517 nm) was recorded after 30 min.

soybean lipoxygenase 1-B = target: T1, soybean lipoxygenase 1-B (Glycine max, UniProt P08170); experiment: In vitro soybean lipoxygenase inhibition, linoleate as substrate; type: biochemical; details: sodium linoleate 100 μM; after 7 min of incubation; pH 9.0, 28 °C
T1 construct: purchased Sigma (St. Louis, MO, U.S.A.)
T1 sequence (P08170 1-839): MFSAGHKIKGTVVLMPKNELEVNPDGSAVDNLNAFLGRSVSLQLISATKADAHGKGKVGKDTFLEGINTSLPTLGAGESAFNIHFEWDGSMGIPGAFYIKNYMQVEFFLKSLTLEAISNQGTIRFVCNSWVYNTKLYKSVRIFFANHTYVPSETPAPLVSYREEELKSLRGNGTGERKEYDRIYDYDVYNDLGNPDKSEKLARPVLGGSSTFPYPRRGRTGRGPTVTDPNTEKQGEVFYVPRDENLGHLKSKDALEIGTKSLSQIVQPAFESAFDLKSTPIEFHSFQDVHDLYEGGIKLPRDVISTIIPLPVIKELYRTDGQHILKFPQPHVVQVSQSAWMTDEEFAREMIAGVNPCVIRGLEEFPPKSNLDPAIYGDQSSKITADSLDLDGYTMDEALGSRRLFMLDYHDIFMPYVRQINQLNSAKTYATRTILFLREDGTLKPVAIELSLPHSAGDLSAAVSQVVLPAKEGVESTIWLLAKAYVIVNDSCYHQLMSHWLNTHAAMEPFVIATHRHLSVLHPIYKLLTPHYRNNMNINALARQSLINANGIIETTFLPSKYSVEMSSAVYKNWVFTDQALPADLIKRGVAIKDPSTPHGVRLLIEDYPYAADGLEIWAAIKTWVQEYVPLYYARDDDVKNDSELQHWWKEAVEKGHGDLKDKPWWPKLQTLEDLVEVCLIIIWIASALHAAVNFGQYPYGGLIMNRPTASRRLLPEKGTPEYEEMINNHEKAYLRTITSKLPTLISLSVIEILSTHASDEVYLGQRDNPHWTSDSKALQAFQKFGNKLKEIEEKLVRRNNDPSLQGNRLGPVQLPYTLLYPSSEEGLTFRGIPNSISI
Procedure: The reaction mixture contained the examined compounds (in absolute ethanol, 1–300 μM), soybean lipoxygenase (in saline, 250 u/mL) and sodium linoleate (100 μM), in Tris–HCl buffer, pH 9.0. The reaction was monitored for 7 min at 28 °C, recording the absorbance at 234 nm. […]

[3] = system: carrageenan-induced rat paw oedema; experiment: Carrageenan-induced rat paw oedema; type: in vivo, Wistar rats; details: 0.15 mmol/kg i.p., oedema after 3.5 h, vs carrageenan-only controls; for inhibition in vivo at 150 µmol/kg: Rattus norvegicus, ip, read-out: % Oedema Reduction
Procedure: The carrageenan-induced paw oedema is a well-known and widely used model of acute inflammation. The response to carrageenan inflammation may be divided into three phases. In the first phase (after 1.5 h), histamine and serotonin are released, the second phase (1.5–2.5 h after carrageenan administration) is mediated by kinins, whereas, in the third phase, more than two hours post administration, neutrophil infiltration, prostaglandin production and release of pro-inflammatory cytokines are involved. In this work, oedema was measured 3.5 h post injection.
κ-Carrageenan and lipoxygenase type I-B from soybean were purchased from Sigma (St. Louis, MO, U.S.A.).
The tested compounds (in water with a few drops of Tween 80) were given i.p. (0.15 mmol/kg) to rats, just after the i.d. injection of 0.1 mL of an aqueous carrageenan solution (1% w/v) in the hind paw of rats. The produced oedema, after 3.5 h, was estimated as paw weight increase.

hyperlipidaemic rats = experiment: Triton WR1339 (tyloxapol) induced hyperlipidaemia in rats; type: in vivo, Wistar rats; details: Rattus norvegicus, ip, 24 h, 150 μmol/kg i.p., tyloxapol 200 mg/kg i.p., plasma after 24 h
Excerpt: The pleiotropic effects of statins, used as hypolipidaemic drugs, include antioxidant ability and direct increase of eNOS activity, in addition to inhibition of 3-hydroxy-3-methylglutaryl coenzyme A (HMG-CoA) reductase. […] The systemic administration of Triton-WR1339 (tyloxapol) to rats induces a biphasic elevation of plasma cholesterol, atherogenic VLDL cholesterol and LDL cholesterol, as well as triglyceride levels. […] Agents shown to be active in phase I are considered to interfere with cholesterol biosynthesis.
κ-Carrageenan and lipoxygenase type I-B from soybean were purchased from Sigma (St. Louis, MO, U.S.A.). For the in vivo experiments, Wistar rats (180–220 g, 3–4 months old) were kept in the Centre of the School of Veterinary Medicine (EL54 BIO42), Aristotelian University of Thessaloniki, which is registered by the official state veterinary authorities (presidential degree 56/2013, in harmonization with the European Directive 2010/63/EEC). The experimental protocols were approved by the Animal Ethics Committee of the Prefecture of Central Macedonia (no. 270079/2500).
Hyperlipidaemia was induced by the i.p. administration of Triton WR 1339 (200 mg/kg) to rats. […] Blood was taken from the aorta after 24 h, for the determination of plasma total cholesterol, LDL-cholesterol and triglyceride concentrations, using commercial kits.

[4] = In vitro nitrogen monoxide release (Griess reagent); details: DMSO/water 7/3, overnight, cadmium
Procedure: Due to their poor aqueous solubility, compounds 1, 3-7 and 9 were dissolved in 7/3 (v/v) mixture of DMSO/water at various concentrations and incubated overnight at room temperature in the presence of cadmium. S-nitroso-N-acetylpenicillamine (SNAP) was dissolved either in DMSO/water 7/3 or in water and treated as above.
Aliquots were taken from each sample and added to an equal volume of N-naphthylaminoethylamine (0.2%) and sulfanilamide (2%) solution in 3 N hydrochloric acid (Griess reagent). Appropriate sodium nitrite solutions in the same DMSO/water mixture were used for the construction of the standard curve and values were identical to those obtained with aqueous solutions. Nitric oxide release was estimated spectrophotometrically (540 nm).

[5] = read-out: % Reduction LDL-C (LDL cholesterol)
[6] = read-out: % Reduction TC (total cholesterol)
[7] = read-out: % Reduction TG (triglycerides)

Compound	IC50 [1]	Percent Interaction with DPPH ([2]; compound 50 μΜ)	Percent Interaction with DPPH ([2]; compound 100 μΜ)	Percent Interaction with DPPH ([2]; compound 200 μΜ)	IC50 (soybean lipoxygenase 1-B)	melting point	% Oedema Reduction [3]	inhibition in vivo at 150 µmol/kg [3]	inhibition in vivo at 150 µmol/kg (hyperlipidaemic rats; [5])	inhibition in vivo at 150 µmol/kg (hyperlipidaemic rats; [6])	inhibition in vivo at 150 µmol/kg (hyperlipidaemic rats; [7])	NO Release ([4]; compound 31.25 μM)	NO Release ([4]; compound 62.5 μM)	NO Release ([4]; compound 125 μM)	NO Release ([4]; compound 250 μM)	NO Release ([4]; compound 500 μM)	lag period in time course of lipid peroxidation ([1]; various concentrations, Figure 2)
Cc1c(C)c2c(c(C)c1O)CCC(C)(C(=O)O)O2 (centres unmarked) [Trolox, 6-hydroxy-2,5,7,8-tetramethylchroman-2-carboxylic acid, reference compound]	25 µM	38%	90%	92%	> 300 µM	–	–	–	–	–	–	–	–	–	–	–	–
CC(C)(C)c1cc(/C=C/C(=O)OCCc2ccc([N+](=O)[O-])cc2)cc(C(C)(C)C)c1O [Compound 8, (E)-4-Nitrophenethyl 3-(3,5-di-tert-butyl-4-hydroxyphenyl)acrylate]	150 µM	23%	57%	88%	10.5 µM	156 to 157 °C	51 ** %	51%	–	–	–	–	–	–	–	–	–
CC(C)(C)c1cc(/C=C/C(=O)OCCO[N+](=O)[O-])cc(C(C)(C)C)c1O [Compound 7, (E)-2-(Nitrooxy)ethyl 3-(3,5-di-tert-butyl-4-hydroxyphenyl)acrylate]	41 µM	21%	49%	87%	44 µM	80 °C	55 ** %	55%	60.6%	66%	45.7%	2 μΜ	6.5 μΜ	17 μΜ	38 μΜ	77 μΜ	–
COc1ccc2c(c1)c(CC(=O)OCCO[N+](=O)[O-])c(C)n2C(=O)c1ccc(Cl)cc1 [Compound 3, 2-(Nitrooxy)ethyl 2-(1-(4-chlorobenzoyl)-5-methoxy-2-methyl-1H-indol-3-yl)acetate]	–	–	–	–	107 µM	83 to 84 °C	–	29%	62.3%	71.7%	31.8%	5 μΜ	13 μΜ	28 μΜ	58 μΜ	102 μΜ	–
Cc1c(C)c2c(c(C)c1O)CCC(C)(C(=O)OCCO[N+](=O)[O-])O2 (racemic) [Compound 9, (±)-2-(Nitrooxy)ethyl 6-hydroxy-2,5,7,8-tetramethylchroman-2-carboxylate]	2.3 µM	55%	90%	92%	120 µM	95 to 97 °C	–	57%	65%	55.4%	30%	3 μΜ	10 μΜ	23 μΜ	49 μΜ	93 μΜ	about 20 min
